Data published in ChEMBL document CHEMBL1201862, “PubChem BioAssay data set” (2004).
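1) Cells in 96-well plates. 2) Compound, 48 h, 5 concentrations. 3) Linear interpolation between surrounding doses. 4) Unreached endpoint = highest concentration. Abbreviation: GI50, concentration required for 50% inhibition of growth.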 Active and inactive are the calls of the source. Cut-off read from the data, not from the text of the source: active = GI50 up to about 1.1 µM and inactive = higher.

Columns and labels:
Experiment in all cases: inhibition of tumour cell growth, NCI panel, 48 h
786-0 = tested on: 786-0
M14 = tested on: M14
DMS-273 = tested on: DMS-273
UO-31 = tested on: UO-31
KM-20L2 = tested on: KM-20L2
RPMI-8226 = tested on: RPMI-8226
IGROV-1 = tested on: IGROV-1
K562 = tested on: K562
M19-MEL = tested on: M19-MEL
KM12 = tested on: KM12
OVCAR-4 = tested on: OVCAR-4
OVCAR-3 = tested on: OVCAR-3
ACHN = tested on: ACHN
SK-MEL-5 = tested on: SK-MEL-5
A549 = tested on: A549
SNB-75 = tested on: SNB-75
LOX IMVI = tested on: LOX IMVI
NCI-H460 = tested on: NCI-H460
EKVX = tested on: EKVX
OVCAR-5 = tested on: OVCAR-5
LXFL 529 = tested on: LXFL 529
SK-MEL-2 = tested on: SK-MEL-2
A498 = tested on: A498
SF-539 = tested on: SF-539
SF-268 = tested on: SF-268
SN12C = tested on: SN12C
SK-OV-3 = tested on: SK-OV-3
COLO 205 = tested on: COLO 205
NCI-H23 = tested on: NCI-H23
CCRF-CEM = tested on: CCRF-CEM
SNB-19 = tested on: SNB-19
HOP-18 = tested on: HOP-18
HL-60 = tested on: HL-60
HT-29 = tested on: HT-29
DMS-114 = tested on: DMS-114
UACC-257 = tested on: UACC-257
DLD-1 = tested on: DLD-1
HCC 2998 = tested on: HCC 2998
RXF 393 = tested on: RXF 393
Malme-3M = tested on: Malme-3M
HOP-92 = tested on: HOP-92
U-251 = tested on: U-251
UACC-62 = tested on: UACC-62
HCT-15 = tested on: HCT-15
SNB-78 = tested on: SNB-78
MOLT-4 = tested on: MOLT-4
XF498 = tested on: XF498
HOP-62 = tested on: HOP-62
CAKI-1 = tested on: CAKI-1
HCT-116 = tested on: HCT-116
SF-295 = tested on: SF-295
OVCAR-8 = tested on: OVCAR-8
TK-10 = tested on: TK-10
SW-620 = tested on: SW-620
NCI-H522 = tested on: NCI-H522
NCI-H226 = tested on: NCI-H226
SR = tested on: SR
SK-MEL-28 = tested on: SK-MEL-28

In the case of `CC(C)(C)[Si](C)(C)OC1C(=O)C[C@H]2CCCC[C@@H]12` (some centres undefined), the GI50 (786-0) is reported as > 100 µM (inactive), the GI50 (M14) is reported as > 100 µM (inactive) and the GI50 (DMS-273) is reported as > 100 µM (inactive). For the same compound, the GI50 (UO-31) was > 100 µM (inactive), the GI50 (KM-20L2) was > 100 µM (inactive) and the GI50 (RPMI-8226) was > 100 µM (inactive). For the same compound, the GI50 (IGROV-1) was > 100 µM (inactive), the GI50 (K562) was > 100 µM (inactive) and the GI50 (M19-MEL) was 87.9 µM (inactive). For the same compound, the GI50 (KM12) was > 100 µM (inactive), the GI50 (OVCAR-4) was > 100 µM (inactive) and the GI50 (OVCAR-3) was > 100 µM (inactive). For the same compound, the GI50 (ACHN) was > 100 µM (inactive), the GI50 (SK-MEL-5) was > 100 µM (inactive) and the GI50 (A549) was > 100 µM (inactive). The GI50 (SNB-75) was > 100 µM (inactive), the GI50 (LOX IMVI) was > 100 µM (inactive) and the GI50 (NCI-H460) was > 100 µM (inactive). The GI50 (EKVX) was > 100 µM (inactive), the GI50 (OVCAR-5) was > 100 µM (inactive) and the GI50 (LXFL 529) was > 100 µM (inactive). For the same compound, the GI50 (SK-MEL-2) was > 100 µM (inactive), the GI50 (A498) was > 100 µM (inactive) and the GI50 (SF-539) was > 100 µM (inactive). The GI50 (SF-268) was > 100 µM (inactive), the GI50 (SN12C) was > 100 µM (inactive) and the GI50 (SK-OV-3) was > 100 µM (inactive). The GI50 (COLO 205) was > 100 µM (inactive), the GI50 (NCI-H23) was > 100 µM (inactive) and the GI50 (CCRF-CEM) was > 100 µM (inactive). For the same compound, the GI50 (SNB-19) was > 100 µM (inactive), the GI50 (HOP-18) was > 100 µM (inactive) and the GI50 (HL-60) was 48.4 µM (inactive). The GI50 (HT-29) was > 100 µM (inactive), the GI50 (DMS-114) was > 100 µM (inactive) and the GI50 (UACC-257) was > 100 µM (inactive). The GI50 (DLD-1) was > 100 µM (inactive), the GI50 (HCC 2998) was > 100 µM (inactive) and the GI50 (RXF 393) was > 100 µM (inactive). The GI50 (Malme-3M) was > 100 µM (inactive), the GI50 (HOP-92) was 20.2 µM (inactive) and the GI50 (U-251) was > 100 µM (inactive). For the same compound, the GI50 (UACC-62) was > 100 µM (inactive), the GI50 (HCT-15) was greater than 100 µM and the GI50 (SNB-78) was > 100 µM (inactive). For the same compound, the GI50 (MOLT-4) was > 100 µM (inactive), the GI50 (XF498) was > 100 µM (inactive) and the GI50 (HOP-62) was > 100 µM (inactive). The GI50 (CAKI-1) was > 100 µM (inactive), the GI50 (HCT-116) was > 100 µM (inactive) and the GI50 (SF-295) was > 100 µM (inactive). The GI50 (OVCAR-8) was > 100 µM (inactive), the GI50 (TK-10) was > 100 µM (inactive) and the GI50 (SW-620) was > 100 µM (inactive).

With `O=C(CCCCCCCCCCc1ccccc1)C1=C(O)CCCC1=O` the GI50 (786-0) was 31.7 µM (inactive), the GI50 (M14) was 41.2 µM (inactive) and the GI50 (DMS-273) was 20.5 µM (inactive). For the same compound, the GI50 (UO-31) was 22 µM (inactive), the GI50 (KM-20L2) was 32.4 µM (inactive) and the GI50 (RPMI-8226) was 29 µM (inactive). For the same compound, the GI50 (IGROV-1) was 35.4 µM (inactive), the GI50 (K562) was 19.8 µM (inactive) and the GI50 (M19-MEL) was 32.7 µM (inactive). The GI50 (NCI-H522) was 27 µM (inactive), the GI50 (KM12) was 30.9 µM (inactive) and the GI50 (OVCAR-4) was 32.7 µM (inactive). The GI50 (OVCAR-3) was 32.8 µM (inactive), the GI50 (ACHN) was 28.1 µM (inactive) and the GI50 (SK-MEL-5) was 18.1 µM (inactive). For the same compound, the GI50 (A549) was 18.4 µM (inactive), the GI50 (SNB-75) was 32.6 µM (inactive) and the GI50 (LOX IMVI) was 26.2 µM (inactive). The GI50 (NCI-H460) was 18.9 µM (inactive), the GI50 (EKVX) was 41.3 µM (inactive) and the GI50 (OVCAR-5) was 33.3 µM (inactive). The GI50 (LXFL 529) was 32.2 µM (inactive), the GI50 (SK-MEL-2) was 23 µM (inactive) and the GI50 (SF-539) was 41.9 µM (inactive). For the same compound, the GI50 (SF-268) was 17.5 µM (inactive), the GI50 (SN12C) was 35.2 µM (inactive) and the GI50 (SK-OV-3) was 35.6 µM (inactive). The GI50 (COLO 205) was 17.6 µM (inactive), the GI50 (NCI-H23) was 20.2 µM (inactive) and the GI50 (CCRF-CEM) was 16.8 µM (inactive). The GI50 (SNB-19) was 46.2 µM (inactive), the GI50 (HOP-18) was 38.6 µM (inactive) and the GI50 (HL-60) was 14.3 µM (inactive). The GI50 (HT-29) was 26.6 µM (inactive), the GI50 (DMS-114) was 18.6 µM (inactive) and the GI50 (UACC-257) was 34 µM (inactive). The GI50 (NCI-H226) was 26.1 µM (inactive), the GI50 (DLD-1) was 41.1 µM (inactive) and the GI50 (HCC 2998) was 35.9 µM (inactive). The GI50 (RXF 393) was 25.1 µM (inactive), the GI50 (HOP-92) was 11.3 µM (inactive) and the GI50 (U-251) was 29.2 µM (inactive). The GI50 (UACC-62) was 25.5 µM (inactive), the GI50 (SNB-78) was 52.4 µM (inactive) and the GI50 (SR) was 23.8 µM (inactive). For the same compound, the GI50 (MOLT-4) was 30.3 µM (inactive), the GI50 (XF498) was 42.5 µM (inactive) and the GI50 (HOP-62) was 43.7 µM (inactive). For the same compound, the GI50 (SK-MEL-28) was 40.4 µM (inactive), the GI50 (CAKI-1) was 7.85 µM (inactive) and the GI50 (HCT-116) was 22.9 µM (inactive). The GI50 (SF-295) was 22.8 µM (inactive), the GI50 (OVCAR-8) was 24.4 µM (inactive) and the GI50 (TK-10) was 42.2 µM (inactive). The GI50 (SW-620) was 37.8 µM (inactive).

With `Cc1cc2c(=O)cc(-c3ccc(O)cc3)oc2c(C(=O)O)c1C` the GI50 (786-0) was > 100 µM (inactive), the GI50 (M14) was > 100 µM (inactive) and the GI50 (DMS-273) was > 100 µM (inactive). The GI50 (UO-31) was > 100 µM (inactive), the GI50 (KM-20L2) was > 100 µM (inactive) and the GI50 (RPMI-8226) was > 100 µM (inactive). For the same compound, the GI50 (IGROV-1) was > 100 µM (inactive), the GI50 (K562) was > 100 µM (inactive) and the GI50 (M19-MEL) was > 100 µM (inactive). The GI50 (NCI-H522) was > 100 µM (inactive), the GI50 (KM12) was > 100 µM (inactive) and the GI50 (OVCAR-4) was > 100 µM (inactive). For the same compound, the GI50 (OVCAR-3) was > 100 µM (inactive), the GI50 (ACHN) was > 100 µM (inactive) and the GI50 (SK-MEL-5) was > 100 µM (inactive). The GI50 (A549) was > 100 µM (inactive), the GI50 (SNB-75) was > 100 µM (inactive) and the GI50 (LOX IMVI) was > 100 µM (inactive). For the same compound, the GI50 (NCI-H460) was > 100 µM (inactive), the GI50 (EKVX) was > 100 µM (inactive) and the GI50 (OVCAR-5) was > 100 µM (inactive). For the same compound, the GI50 (LXFL 529) was > 100 µM (inactive), the GI50 (SK-MEL-2) was > 100 µM (inactive) and the GI50 (SF-539) was > 100 µM (inactive). The GI50 (SN12C) was > 100 µM (inactive), the GI50 (SK-OV-3) was > 100 µM (inactive) and the GI50 (COLO 205) was > 100 µM (inactive). The GI50 (NCI-H23) was > 100 µM (inactive), the GI50 (CCRF-CEM) was > 100 µM (inactive) and the GI50 (SNB-19) was > 100 µM (inactive). The GI50 (HOP-18) was > 100 µM (inactive), the GI50 (HL-60) was > 100 µM (inactive) and the GI50 (HT-29) was > 100 µM (inactive). For the same compound, the GI50 (DMS-114) was > 100 µM (inactive), the GI50 (UACC-257) was > 100 µM (inactive) and the GI50 (NCI-H226) was > 100 µM (inactive). For the same compound, the GI50 (DLD-1) was > 100 µM (inactive), the GI50 (HCC 2998) was > 100 µM (inactive) and the GI50 (Malme-3M) was > 100 µM (inactive). The GI50 (HOP-92) was > 100 µM (inactive), the GI50 (U-251) was > 100 µM (inactive) and the GI50 (UACC-62) was > 100 µM (inactive). The GI50 (HCT-15) was greater than 100 µM, the GI50 (SNB-78) was > 100 µM (inactive) and the GI50 (SR) was > 100 µM (inactive). The GI50 (MOLT-4) was > 100 µM (inactive), the GI50 (XF498) was > 100 µM (inactive) and the GI50 (HOP-62) was > 100 µM (inactive). For the same compound, the GI50 (SK-MEL-28) was > 100 µM (inactive), the GI50 (CAKI-1) was 22 µM (inactive) and the GI50 (HCT-116) was > 100 µM (inactive). For the same compound, the GI50 (SF-295) was > 100 µM (inactive), the GI50 (OVCAR-8) was > 100 µM (inactive) and the GI50 (TK-10) was > 100 µM (inactive). For the same compound, the GI50 (SW-620) was > 100 µM (inactive).
